Results published in Sander's compilation of Henry's law constants (doi:10.1007/bf02268351).

Test: Henry solubility constant Hcp at 298.15 K (mol/(m3 Pa))
Conditions: reference: Kolb et al. (1992)

SMILES	Henry solubility constant Hcp
Cc1ccccc1C [1,2-dimethylbenzene]	0.0014
CCOC(C)=O [ethyl ethanoate]	0.044
CC(Cl)(Cl)Cl [1,1,1-trichloroethane]	0.00079
CC(C)O [2-propanol]	0.79
C1CCCCC1 [cyclohexane]	5.4e-05
CCCCCC [hexane]	0.00024
ClC(Cl)=C(Cl)Cl [tetrachloroethene]	0.00081
CCCCOC(C)=O [butyl ethanoate]	0.023
CC(=O)CC(C)C [4-methyl-2-pentanone]	0.043
Cc1ccccc1 [methylbenzene]	0.0016
